In a melting point compilation (Tetko et al.; mined from patent text by program, amines drawn as free bases though some values may be those of a salt):

Row | Compound | melting point [°C]
1 | CNC(N)=Nc1nc(-c2cccc(CNC(C)=O)n2)cs1 | 181
2 | Nc1c2c(nc3ccc(Cl)cc13)CCCC2=O | > 260
3 | CC(=O)Oc1cc(C(=O)O)cc([N+](=O)[O-])c1OC(C)=O | 126 to 127
4 | CCOC(=O)Nc1csc2cc(OC)ccc12 | 88
5 | CC(C)(O)CNCCN(C1CCNCC1)S(=O)(=O)c1ccc(Nc2nccc(Nc3ccc(F)cc3)n2)cc1 | 120
6 | Cn1c(=O)c2[nH]c(C3CCSC3)nc2n(C)c1=O (configuration not stated) | 217 to 219
7 | Nc1c(Cl)cc(C(=O)NC2CCNCC2)c2c1CCO2 | 190
8 | CC(C)OC(=O)c1cc(N)n(C)n1 | 86 to 87
9 | CC(C)c1cccc(C(C)C)c1NC(=O)CSCCCCCCCCCBr | 85 to 86
10 | CCOC(=O)C(Cl)=Cc1cc(-n2ncc(C(F)(F)F)cc2=O)ccc1Cl | 98 to 100
11 | Cn1c2c(c3ccccc31)CCN1C(=O)CCC21C (configuration not stated) | 132 to 134
12 | CC(C)C(C#N)Nc1ccc(C(F)(F)F)cc1 (configuration not stated) | 64.5 to 67
13 | O=S(=O)(C(=CNc1ccc(Br)cn1)S(=O)(=O)c1ccccc1)c1ccccc1 | 177 to 179
14 | COC(=O)c1c(N)cccc1S(=O)(=O)NC(C)(C)C | 132 to 133
15 | O=C(Nc1ccc(Oc2ccc(Br)cc2)nc1)c1ccccc1C(c1ccc(O)cc1)c1ccc(O)cc1 | 218 to 223
16 | Cc1cc(Oc2ccc(Cl)c(C(F)(F)F)c2)ncc1N | 105 to 107
17 | O=C(c1ccc(-c2ccn(C(=O)c3ccc(Cl)cc3Cl)n2)cc1)N1Cc2cccn2Cc2ccccc21 | 180 to 182
18 | COc1cc(NC(=O)OC(C)(C)C)c(Cl)c(OC)c1 | 94.5 to 95.5
19 | COc1cc(C(C)C)c2c(c1)S(=O)(=O)N(COc1cc(C(F)(F)F)nn1-c1ccc([N+](=O)[O-])cc1)C2=O | 185 to 187
20 | O=C(Nc1cccc(OCc2cccnc2)c1)N1CCOCC1 | 58 to 62
21 | CCCn1c(=O)c(=O)[nH]c2cc([N+](=O)[O-])c(-n3ccc(=O)cc3)cc21 | > 300
22 | C=C(CC(Cl)(Cl)Cl)c1nc(Cl)ccc1Cl | 71 to 74

Row | Compound | melting point [°C]
23 | O=C(Nc1cccc(-c2cccc(-n3c(=O)c(Cc4cccnc4)nc4cccnc43)c2)c1)C(F)(F)F | 138 to 144
24 | CCOC(=O)CCNCC(O)COc1cccc(C)c1 (configuration not stated) | 57
25 | OCc1ccnc(Br)c1 | 63.3 to 64.4
26 | COCCOC(=O)OC[C@@H]1CC(c2ccc(-c3ccc(N4C[C@H](Cn5ccnn5)OC4=O)cc3F)cn2)=NO1 | 112
27 | OCCNc1nc(NCc2ccccc2)c2ncc(Nc3ncccn3)cc2n1 | 141 to 142
28 | N#Cc1nn(-c2c(Cl)cc(C(F)(F)F)cc2Cl)cc1C1CC1(Br)Br (configuration not stated) | 121 to 123
29 | NC(CC(=O)NC1CC1)C1CC1 (configuration not stated) | 116 to 118
30 | CC(=O)OCC(C)(C)c1ccc(S(N)(=O)=O)cc1 | 156 to 158
31 | CCC(O)(CCC(N)=O)c1ccc(Br)cc1 (configuration not stated) | 122 to 123
32 | CC(C)(CCCC(=O)O)c1ccc(O)cc1 | 94 to 96
33 | O=c1[nH]nc(-c2cccc(C(F)(F)F)c2)c2ncccc12 | 210 to 215
34 | CCn1cc(C=O)c(-c2ccc([N+](=O)[O-])o2)n1 | 145 to 146
35 | COc1ccnc(C(C)O)c1 (single isomer, unassigned; (+)) | 92
36 | CNC(=O)N1C(=S)C2(CCCCC2)NC12CCCCC2 | 127 to 129
37 | CS(=O)(=O)N1CCN([C@@H](CNC(=O)c2ccc(OCc3ccc(C(F)(F)F)cc3)cc2)C(=O)NO)CC1 | 192
38 | CCN(CC)CC(=O)Nc1ccc(C2=NN(C(C)=O)C(C)Cc3cc4c(cc32)OCO4)cc1 (configuration not stated) | 175 to 176
39 | O=C(O)[C@@H]1CSC2(CCSCC2)N1 | 196
40 | Nc1ccc(S(=O)(=O)N2CCN(c3ccc(F)cc3)CC2)cc1 | 180 to 182
41 | CCOC(=O)C1=C(COC)NC(COC)=C(C(=O)OCC)C1c1ccc(SC)cc1 | 136 to 138
42 | CN(C)CC1(C2(O)CCCCC2)Cc2cc3c(cc21)N(S(C)(=O)=O)CC3 (configuration not stated) | 156 to 158
43 | CCOC(=O)c1cc2cc(Oc3ccc(S(C)(=O)=O)cc3)cc(OC)c2[nH]1 | 161 to 162
44 | COc1ccc(CN(C)CCc2ccc(NC(=O)c3cccc4c(=O)c5cccc(OC)c5sc34)cc2)cc1OC | 151

Row | Compound | melting point [°C]
45 | COc1ccc(-c2ncc(Cl)nc2-c2ccc(OC)cc2)cc1 | 126 to 127
46 | CCC(CC)n1cc(Br)nc(N2CCc3cc(OC)cc(C)c32)c1=O | 152 to 154
47 | COC(=O)c1[nH]c(C)c(C)c1OCCCCl | 117 to 120
48 | CC(C)(C)C1=NN(c2ccc(C(=O)O)cc2)C(c2ccc(Br)cc2)C1 (configuration not stated) | 222
49 | COc1ccc(C)c(O)c1 | 34 to 35
50 | COc1cc2ncc(C#N)c(Nc3ccc(F)c(Cl)c3)c2cc1NC(=O)C=CCN1CCC(N2CCCCC2)CC1 | 140 to 144
51 | COc1ccc(-c2nc(S(=O)(=O)c3nccs3)[nH]c2-c2ccc(OC)cc2)cc1 | 219
52 | CC#CCOc1cc(Cc2c(F)cccc2F)ncn1 | 57.6
53 | O=C(Oc1ccc(-c2cc3ccc(OC(=O)c4ccccc4)cc3s2)cc1)c1ccccc1 | 216 to 218
54 | O=C1Cc2cc(F)c(N3C(=O)C4=C(CCCC4)C3=O)cc2N1 | 234 to 236
55 | COC(=O)NC=Cc1ccc(OCC(O)CNC(C)CC(N)=O)cc1 (configuration not stated) | 109 to 111
56 | O=[N+]([O-])c1cc(C2OCCCO2)ccc1O | 70 to 71
57 | CCOC(=O)c1nc2ccc([N+](=O)[O-])cc2c(O)c1C(=O)OCC | 264
58 | CN1C(=O)N(CCN=C=O)C(C)(C)C1=O | 62
59 | NC(=O)NC1CCN(Cc2ccccc2)CC1 | 140
60 | CC(=O)Nc1ccc(S(=O)(=O)Nc2nnc(C)s2)cc1 | 239 to 240
61 | CC(=S)NC[C@H]1CN(c2ccc(N3CCC(=O)N(C)CC3)c(F)c2)C(=O)O1 | 157 to 158
62 | CN(c1cccc2cc(-c3nccs3)[nH]c12)S(=O)(=O)c1ccsc1CCl | 190
63 | Cn1cc(S(C)=O)c(=O)c2ccc(F)cc21 (configuration not stated) | 226 to 228
64 | O=C(c1ccc(F)c(F)c1)N1CCC[C@H](c2nc(-c3ccncc3)no2)C1 | 102 to 106
65 | CCCOC(C)c1ccc2[nH]c3cnc(C(=O)OCC)c(COC)c3c2c1 (configuration not stated) | 189 to 190

Further lines, results first:

Row | melting point [°C] | Compound
66 | 77 to 80.2 | CC(C)N(CCc1c[nH]c2cc(Cl)ccc12)Cc1cccc(OCC(F)(F)C(F)(F)F)c1
67 | 115 to 116 | O=C(CNC(=O)OCc1ccccc1)Nc1ccccc1C(=O)c1cccs1
68 | 83 | COc1ccc2cccc(CC#N)c2c1
69 | 198 to 200 | Cc1nc(Nc2ccc(F)cc2)nc(N2CCc3ccccc3C2CO)c1C (configuration not stated)
70 | 114 to 116 | Oc1ccc(Nc2ccn(Cc3ccccc3)n2)cc1
71 | 101 to 102 | Cc1sc(-c2ccccc2)nc1COc1ccc(CCCC(O)C#N)cc1 (configuration not stated)
72 | 145 to 147 | O=c1occ(-c2ccccc2)n1-c1ccc(F)cc1
73 | 106 to 107 | CCOC(=O)c1ccc(N(C)Cc2ccc(Cl)cc2)cc1
74 | 141 to 143 | CC(S)C(=O)N1c2ccccc2CCC1C(=O)O (configuration not stated)
75 | 242 to 244 | CCC(C)Oc1ccccc1-c1nc2ccc(C(=O)O)cc2c(=O)[nH]1 (configuration not stated)
76 | 147 to 148 | CC(O)(Cc1ccc(C#N)cc1)Cc1ccc(C#N)cc1
77 | 148 to 150 | O=C(c1ccc([N+](=O)[O-])cc1)N1CCCCc2ccccc21
78 | 238 to 239 | C=CCOc1ccccc1-c1nc2nc(SC)nnc2c(=O)[nH]1
79 | 189 to 191 | COc1ccc2[nH]c3c(c2c1)C1C(=O)OC(=O)C1C(c1ccccc1Cl)C3 (configuration not stated)
80 | 188 to 190 | O=C(O)C1CCc2c(c3ccccc3n2C(=O)c2ccccc2)C1 (configuration not stated)
81 | 206 to 208 | O=C1Cc2ccc3ccccc3c2OC1C(=O)c1cccc(Cl)c1 (configuration not stated)
82 | 206 to 208 | COC(=O)C(C(=O)N1CCOCC1)C(c1ccccc1)c1cc2cc(Br)ccc2nc1OC (configuration not stated)
83 | 167 to 168 | CS(=O)(=O)c1ccc(C2=C(c3ccccc3)C(=O)c3ccccc32)cc1
84 | 68 to 69 | COCCSCC(=O)[C@H](Cc1ccccc1)NC(=O)[C@H](CC(C)C)NC(=O)OCc1ccccc1

Row | melting point [°C] | Compound
85 | 234 to 235 | Oc1c2c(nn1-c1nc3ccccc3s1)CCc1ccccc1-2
86 | 90 to 94 | CCCCOc1ccc(CC(=O)N[C@@H](C(=O)O)[C@@H](C)O)cc1
87 | 135 to 136 | Oc1ccc(Cc2ccccc2)c2c1NCCC2
88 | 269 to 272 | O=C1NC(=O)c2c1c(-c1ccccc1Cl)cc1c2c2cc(O)ccc2n1CCCc1nnn[nH]1
89 | 109 to 110 | O=C1OC(Cc2ccccc2)CN1C(=O)c1ccccc1 (configuration not stated)
90 | 140 to 141 | COc1ccc(OCCOc2ccc(C(=O)C(=O)O)cc2)cc1OC
91 | 71 to 76 | COC(=O)c1ccc(OCCNC(=O)C2Cc3ccccc3N2S(=O)(=O)c2ccc(-c3ccc(F)cc3Cl)cc2)cc1F (configuration not stated)
92 | 85 to 87 | CN1C(=O)C(c2cccc(OCc3ccccc3)c2)(c2cnn(CC(F)(F)F)c2)N=C1N (configuration not stated)
93 | 127 | COc1ccc(COc2cccc(N)c2N)cc1
94 | 138 to 140 | CC(=O)c1cn(S(=O)(=O)c2ccccc2)c2nccc(-c3ccccc3)c12
95 | 130 to 132 | CCCSC(C(N)=O)c1cc(C)cc(C(=O)c2ccc(F)cc2)c1N (configuration not stated)
96 | 206 to 209 | O=C1c2ccccc2C(=O)N1CCc1c[nH]c2ccc(Br)cc12
97 | 88 to 90 | CCSc1ccc(Oc2ccc(C(=O)c3ccccc3)cc2)nc1C#N
98 | 219 to 221 | O=C1CCC(N2Cc3c(CNC(=O)c4ccco4)cccc3C2=O)C(=O)N1 (configuration not stated)
99 | 200 to 203 | O=C(CN1CCC(CCc2ccccc2)CC1)Nc1ccc2c(c1)OCC(=O)N2
100 | 138 to 140 | CC=CCSc1cc(C(=O)O)cc([N+](=O)[O-])c1-c1ccccc1
101 | 216 to 218 | O=C(O)Cc1c(-c2cccs2)nn(-c2ccccc2)c1-c1cccs1
102 | 120 to 121 | CC(O)CCc1ccc2c(c1)Cc1ccccc1-2 (configuration not stated)
